Laboratory results reported in patent US12473249B2, “Aromatic compounds and pharmaceutical uses thereof” (BASF AS, priority 2018, dated 2025).
Marks after values point to notes of the source that are not given here.

What was measured:
Assay type in all cases: in vivo, mouse
APOE*3Leiden mice = assay: Plasma lipids in high-fat diet fed APOE*3Leiden mice; conditions: for triglyceride levels over 4 weeks: further study with reference compounds, 0.3 mmol/kg bw/day, FIG. 31
Protocol: The APOE*3Leiden mouse expresses a variant of the human apolipoprotein E3 (APOE3), the APOE*3Leiden, in addition to the human apolipoprotein C1 (APOC1).
Studies were performed in APOE*3Leiden mice (13-15 weeks old) placed on a semi-synthetic high fat diet (24% fat w/w) with 0.25% cholesterol w/w. After a 4-week run-in period, mice were sub-divided into groups of 5 mice each and administration of Compound A, Compound B, or vehicle alone was started. Both Compound B and Compound A were administered at a dose of 0.3 mmol/kg bw/day via diet. Sunflower oil (10 ml v/w) was used as a vehicle to facilitate mixing. After 4 weeks of treatment mice were sacrificed by C02 asphyxiation and plasma cholesterol and triglycerides were measured using commercially available kits (Roche*/Hitachi©).
In a further study, performed as described above, the effects of Compound A, Compound B, and Compound C were compared with the effects of Reference Compound 1 ((Z)-3-(pent-2-en-1-yloxy)benzoic acid) and Reference Compound 2 ((Z)-4-(pent-2-en-1-yloxy)benzoic acid) on triglyceride levels. […] The results of this study are described in Example 17.

[1] = Relative bodyweight in ob/ob AMLN mice; conditions: 0.3 mmol/kg bw day, 4 weeks treatment, FIG. 11
Protocol: (§1) ob/ob mice are consistently fibrosis (liver) prone when cholesterol (2%) and 40% fat (containing 18% trans-fatty acids) and 20% fructose are added to a high-caloric diet (i.e., AMLN diet). ob/ob mice on AMLN diet (termed ‘ob/ob AMLN mice’) develop steatohepatitis and fibrosis within a shorter timeframe (<12 weeks) compared with wild-type C57BL/6 mice (AMLN mice) fed the same diet. ob/ob AMLN mice provide an obese diet-induced model of NASH that also allows the study of effects on glycemic control.
(§2) Thirty male ob/ob mice (5 weeks old) were fed the AMLN diet for 15 weeks then randomised into 3 groups of 10 mice/group to receive Compound B or Compound A (both at 0.3 mmol/kg bw day) or no treatment (vehicle) for a further 4 weeks. Assessment of the hepatic expression of key genes regulating plasma lipid concentrations (LDLr), hepatic fibrosis (collA1), bile acid transport/re-uptake (Slc51b and Slc10a2) and inflammation (CD68) was made via RNA sequencing at 4 weeks. To assess the effects of Compound B and Compound A on glycemic control, an oral glucose tolerance test (OGTT) was also performed at 3 weeks. An additional group of mice (n=5) were also treated with a PPAR-γ agonist (pioglitazone, 30 mg/kg bw day) was also included to compare effects upon bodyweight.

ob/ob AMLN mice = assay: Glycemic control (oral glucose tolerance test, fasting glucose and insulin) in ob/ob AMLN mice; conditions: 0.3 mmol/kg bw day
Protocol: as §1
as §2, with “To assess the effects of Compound B and Compound A on glycemic control, an oral glucose tolerance test (OGTT) was also performed at 3 weeks.” left out

[2] = test system: hepatic expression of key genes; assay: Hepatic target gene expression via RNA sequencing in ob/ob AMLN mice; conditions: 0.3 mmol/kg bw day, 4 weeks treatment
Protocol: as §1, §2

C57BL/6 mice = assay: Hepatic steatosis and organ mass in oral PN diet fed C57BL/6 mice, subsequent experiment at two dosages (H&E); conditions: 19 days
Description: Male C57BL/6 mice, 6 to 8 weeks old at initiation of the experiments, were used for all experimental groups. Mice were fed either an ad libitum diet of standard rodent chow (calorie composition: 26% protein, 14% fat, 60% carbohydrates) and water or a parenteral nutrition (PN) solution that mimics the PN diet used in neonatal intensive care units. The PN solution was a fat-free, high-carbohydrate liquid diet (20% dextrose, 2% essential and nonessential amino acids, 0.2% pediatric trace elements, 0.5% pediatric multivitamins, 30 mEq of sodium, 20 mEq of potassium, 15 mEq of calcium (as calcium gluconate), 10 mEq of magnesium, 10 mEq of phosphate, 5 mEq of acetate, and 30 mEq of chloride per liter) administered as a single 50 mL bottle per cage which mice consumed ad libitum. […] Prince et al., JPEN J Parenter Enteral Nutr., 2014; 38(5): 608-616.
In a subsequent experiment, both Compound A and Compound B were tested at two dosages. The results of this experiment are described in Example 15.
Male C57BL/6 mice, 6 to 8 weeks old at initiation of the experiments, were used for all experimental groups. One group was fed an ad libitum diet of standard rodent chow and water. The group fed standard rodent chow received no additional treatments during the experimental period and served as a negative control group. Seven other groups (10 mice per group) were fed the PN solution described above ad libitum.
Of the seven groups that received the PN diet, each group received one of the following orogastric protocols administered every other day over 19 days: • (1) Saline: saline solution administered isovolumetric with the Omegaven® group; • (2) MCT: medium-chain triglyceride oil (MCT) (Nestle™ HealthCare Nutrition, Florham Park, NJ), at a dose of 7.4 g of fat/kg body weight; • (3) Omegaven®: Omegaven® (commercial fish oil lipid emulsion) at a dose of 2.4 g fat/kg body weight; • (4) Compound A LOW: Compound A at a dose of 0.3 mmol/kg bw day (diluted in MCT to 0.0375 mmol/mL, resulting in administration of 7.4 g of MCT/kg weight); • (5) Compound A HI: Compound A at a dose of 0.6 mmol/kg bw day (diluted in MCT to 0.075 mmol/mL, resulting in administration of 7.4 g of MCT/kg weight); • (6) Compound B LOW: Compound B at a dose of 0.3 mmol/kg bw day (diluted in MCT to 0.0375 mmol/mL, resulting in administration of 7.4 g of MCT/kg weight); and • (7) Compound B HI: Compound B at a dose of 0.6 mmol/kg bw day (diluted in MCT to 0.075 mmol/mL, resulting in administration of 7.4 g of MCT/kg weight).
After 19 days of treatment, organs were harvested, including the liver, kidney, and spleen, which were analyzed for relative weight between each group. Livers were also fixed and frozen on dry ice, then stored at −80° C. for hematoxylin and eosin (H&E) stain analysis and Oil Red O analysis.

[3] = oral PN diet, high and low dosages, FIG. 18
[4] = high-fat high-cholesterol diet, 4 weeks treatment
[5] = high-fat high-cholesterol diet, 4 weeks treatment, dose 0.1 mmol/kg bw/day
[6] = high-fat high-cholesterol diet, 4 weeks treatment, dose 0.3 mmol/kg bw/day

SMILES | triglyceride levels over 4 weeks (APOE*3Leiden mice) | relative bodyweight versus vehicle [1] | total plasma glucose (area-under-the-curve from 0-240 mins) versus vehicle in response to an oral glucose load (ob/ob AMLN mice; after 3 weeks treatment, FIG. 1) | plasma glucose at 30- and 60-mins versus vehicle in response to an oral glucose load (ob/ob AMLN mice; after 3 weeks treatment, FIG. 2) | fasting plasma insulin versus vehicle (ob/ob AMLN mice; after 4 weeks treatment, FIG. 3) | fasting plasma glucose versus vehicle (ob/ob AMLN mice; after 4 weeks treatment, FIG. 4) | hepatic expression of Coll al (collagen1a1) versus vehicle ([2]; FIG. 5) | expression of hepatic LDLr versus vehicle ([2]; FIG. 12) | development of steatosis induced by an oral PN diet (H&E stain in isolated liver sections) (C57BL/6 mice; 0.3 and 0.6 mmol/kg bw day in MCT by orogastric gavage, FIGS. 14-17) | body mass vs chow-fed or PN-fed saline groups (C57BL/6 mice; [3]) | liver/body mass vs chow-fed or PN-fed saline groups (C57BL/6 mice; [3]) | spleen/body mass vs chow-fed or PN-fed saline groups (C57BL/6 mice; [3]) | plasma TG versus vehicle (APOE*3Leiden mice; [4]) | total plasma cholesterol versus vehicle (APOE*3Leiden mice; [4]) | Reduction in plasma TG vs control (%) (APOE*3Leiden mice; [5]) | Reduction in plasma cholesterol vs control (%) (APOE*3Leiden mice; [5]) | Reduction in plasma TG vs control (%) (APOE*3Leiden mice; [6]) | Reduction in plasma cholesterol vs control (%) (APOE*3Leiden mice; [6])
CC/C=C\COc1ccc(C(=O)O)cc1 [Reference Compound 2, (Z)-4-(pent-2-en-1-yloxy)benzoic acid, reference compound] | did affect | – | – | – | – | – | – | – | – | – | – | – | – | – | – | – | – | –
CC/C=C\COc1cccc(C(=O)O)c1 [Reference Compound 1, (Z)-3-(pent-2-en-1-yloxy)benzoic acid, reference compound] | did affect | – | – | – | – | – | – | – | – | – | – | – | – | – | – | – | – | –
CC/C=C\COc1cccc(C(=O)O)c1C [Compound B, (Z)-2-methyl-3-(pent-2-en-1-yloxy)benzoic acid] | – | no effect | significantly reduce | significantly reduce | reduce | significantly reduce | significantly reduce | significantly increase | prevented the development of steatosis | not significantly different | not significantly different | not significantly different | significantly reduce | significantly reduce | 45** % | 24** % | 63** % | 27** %
